Experimental data: patent US8791155B2, “Chroman derivatives” (Edison Pharmaceuticals, Inc., priority 2003, dated 2014)

What was measured:
[1] = tested on: release of the leukotriene LTB4 from MPRO cell line; test: LTB4 assay (competitive ELISA); assay type: cell-based; conditions: Mus musculus; 1 μM calcium ionophore A23187, 1 hour; read-out: EC50, inhibition of LTB4 production
Source text: This procedure was used for measuring the release of the leukotriene LTB4 from a neutrophil cell line using a competitive ELISA technique.
• MPRO cell line (ATCC, Catalog #CRL-11422) • Calciumionophore (A23187) (Sigma, Catalog #C7522) • Nordihydroguaiaretic acid (NDGA) (BioMol, Catalog #E1101-0001) • Retinoic Acid (all-trans) (ATRA) (Sigma, Catalog #95152) • Sterile, tissue-culture treated 96-well plates (Corning, Catalog #3614) Materials for LTB4 ELISA • Precoated (Mouse Anti-Rabbit IgG) EIA 96 Well Strip Plates (Cayman, Catalog #400004) • Leukotriene B4 AChE Tracer (Cayman Catalog #420110) • Leukotriene B4 EIA Antiserum (Cayman Catalog #420112) • Ellman's Reagent (Cayman Catalog #400050) • EIA Buffer Concentrate (10×) (Cayman Catalog #400060) • Wash Buffer Concentrate (400×) (Cayman Catalog #400062) • Plastic plate covers (Cayman Catalog #400012) Procedure
A mouse promyelocytic cell line (MPRO) was used in this assay. These cells are committed immature neutrophils that can be differentiated into mature neutrophils by treatment with 10 μM all-trans retinoic acid for 72 hours
Following 72 hours of differentiation, cells were stimulated with 1 μM of a calcium ionophore (A23187) in the presence or absence of test compound or vehicle for 1 hour at 370 C. After this time, supernatant was removed from the cells and the LTB4 levels were determined following manufacturer's instructions, using a Leukotriene B4 EIA kit from Cayman (Cat #520111)
The negative controls were media samples from differentiated but unstimulated cells.
The compounds were screened at 5 concentrations in quadruplicate starting at 10 μM

[2] = target: T1, porcine leukocyte 12/15-lipoxygenase (Sus scrofa, UniProt P16469); test: 12/15-Lipoxygenase enzyme assay; assay type: biochemical; conditions: 70 μM arachidonic acid, pH 7.4, 10 minute incubation; read-out: IC50, inhibition of 12/15-Lipoxygenase
T1 construct: purchased Cayman 60300
T1 sequence (P16469 1-663): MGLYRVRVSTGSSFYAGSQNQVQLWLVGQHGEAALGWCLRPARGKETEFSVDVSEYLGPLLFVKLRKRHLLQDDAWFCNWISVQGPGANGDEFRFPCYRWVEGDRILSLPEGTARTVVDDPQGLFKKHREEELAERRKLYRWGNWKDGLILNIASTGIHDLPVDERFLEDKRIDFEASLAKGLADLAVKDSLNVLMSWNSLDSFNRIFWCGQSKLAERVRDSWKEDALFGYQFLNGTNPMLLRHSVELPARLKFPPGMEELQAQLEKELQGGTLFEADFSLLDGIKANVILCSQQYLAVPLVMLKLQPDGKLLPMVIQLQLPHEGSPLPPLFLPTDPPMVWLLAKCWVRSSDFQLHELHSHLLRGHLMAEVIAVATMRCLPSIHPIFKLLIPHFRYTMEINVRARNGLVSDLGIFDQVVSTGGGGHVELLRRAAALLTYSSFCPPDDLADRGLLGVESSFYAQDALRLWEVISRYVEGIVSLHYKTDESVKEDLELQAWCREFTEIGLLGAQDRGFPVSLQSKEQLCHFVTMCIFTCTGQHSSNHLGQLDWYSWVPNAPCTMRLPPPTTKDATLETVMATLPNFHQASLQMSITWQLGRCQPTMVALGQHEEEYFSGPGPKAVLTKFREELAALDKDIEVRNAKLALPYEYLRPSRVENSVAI
Source text: In vitro evaluation of the ability of a composition to inhibit the enzymes 5-lipoxygenase, 15-lipoxygenase, or 12/15 lipoxygenase as described in Walidge, N. B. et al Anal. Biochem., 231: 354-358 (1995) using a high throughput colorimetric method; as well as in vitro evaluation of inhibiting LTB4 is described in Examples.
This procedure was used for measuring the enzymatic activity of porcine leukocyte 12/15-lipoxygenase using a colorimetric method based on the ferric oxidation of xylenol orange.
• 96 well flat bottom microfilter plates (VWR, Catalog #62402-933 9295) • Lipoxygenase screening assay buffer (Cayman, Catalog #760710) • Porcine leukocyte 12/15-lipoxygenase (Cayman, Catalog #60300) • Arachidonic Acid (Sigma, Catalog #A3555) • Xylenol orange tetrasodium salt (Aldrich, Catalog #227854) • Iron (II) sulfate heptahydrate (Sigma, Catalog #F7002) • Sulfuric acid (95-98%) [18M] • Methanol Procedure
Porcine Leukocyte 12/15-lipoxygenase (Cayman Cat #60300) was used in this assay. Test compound and/or vehicle was added to 1.3 U 12/15-lipoxygenase in 50 mM Tris-HCl buffer, pH 7.4. The reaction was initiated by addition of 70 μM arachidonic acid in Tris-HCl buffer, pH 7.4, and terminated after a 10 minute incubation at room temperature by addition of FOX reagent (25 mM sulphuric acid, 100 μM xylenol orange, 100 μM iron (II) sulphate, methanol:water 9:1). The yellow color of acidified xylenol orange was converted to a blue color by the lipid hydroperoxide-mediated oxidation of Fe 2+ ions and the interaction of the resulting Fe 3+ ions with the dye. The complex was allowed to form during a 1 hour incubation at room temperature with shaking. Absorbance of the Fe 3+ complex was then measured at […] using a spectrophotometer.
Negative controls contained enzyme during the incubation step but substrate was not added until after the FOX reagent.
Compounds are screened at 5 concentrations in triplicate starting at 10 μM

Row | Compound | EC50 [1] [nM] | IC50 [2] [nM]
1 | COC(=O)c1ccc(-c2c(O)c(C)c(C)c3c2CCC(C)(C)O3)cc1 [4-(6-Hydroxy-2,2,7,8-tetramethyl-chroman-5-yl)-benzoic acid methyl ester] | < 1000 | < 1000
2 | C=CCSCc1c(O)c(C)c(C)c2c1CCC(C)(C)O2 [5-Allylsulfanylmethyl-2,2,7,8-tetramethyl-chroman-6-ol] | < 1000 | < 1000
3 | Cc1c(C)c2c(c(C)c1O)CCC(C)(C=C(Br)Br)O2 (stereo not drawn) [2-(2,2-Dibromo-vinyl)-2,5,7,8-tetramethyl-chroman-6-ol] | < 1000 | < 1000
